Tests used:
Assay type in all cases: in vivo
[1] = system: Diabrotica Balteata (Corn Root Worm); assay: Diabrotica balteata (corn root worm) mortality on sprayed maize sprouts; details: 96 h, application rate of 200 ppm, L2 larvae, assessed 4 days after infestation, read-out: control (mortality)
Protocol: Diabrotica Balteata (Corn Root Worm):
Maize sprouts placed onto an agar layer in 24-well microtiter plates were treated with aqueous test solutions prepared from 10′000 ppm DMSO stock solutions by spraying. After drying, the plates were infested with L2 larvae (6 to 10 per well). The samples were assessed for mortality 4 days after infestation.

[2] = system: Tetranychus urticae (Two-Spotted Spider Mite); assay: Tetranychus urticae feeding/contact activity on sprayed bean leaf discs; details: foliar, 192 h, application rate of 200 ppm, mite population of mixed ages, assessed 8 days after infestation, read-out: control (mortality on mixed population, mobile stages)
Protocol: Tetranychus urticae (Two-Spotted Spider Mite): Feeding/Contact Activity
Bean leaf discs on agar in 24-well microtiter plates were sprayed with aqueous test solutions prepared from 10′000 ppm DMSO stock solutions. After drying the leaf discs were infested with a mite population of mixed ages. The samples were assessed for mortality on mixed population (mobile stages) 8 days after infestation.

[3] = system: Plutella xylostella (Diamond Back Moth); assay: Plutella xylostella feeding/contact activity on treated artificial diet; details: 120 h, application rate of 200 ppm, L2 larvae, assessed 5 days after infestation, read-out: control (mortality)
Protocol: Plutella xylostella (Diamond Back Moth): Feeding/Contact Activity
24-well microtiter plates with artificial diet were treated with aqueous test solutions prepared from 10′000 ppm DMSO stock solutions by pipetting. After drying, the plates were infested with L2 larvae (10 to 15 per well). The samples were assessed for mortality 5 days after infestation.

[4] = system: Euschistus heros (Neotropical Brown Stink Bug); assay: Euschistus heros feeding/contact activity on sprayed soybean leaves; details: 120 h, application rate of 200 ppm, N2 nymphs, assessed 5 days after infestation, read-out: control (mortality)
Protocol: Euschistus heros (Neotropical Brown Stink Bug): Feeding/Contact Activity
Soybean leaves on agar in 24-well microtiter plates were sprayed with aqueous test solutions prepared from 10′000 ppm DMSO stock solutions. After drying the leaves were infested with N2 nymphs. The samples were assessed for mortality 5 days after infestation.

[5] = system: Thrips tabaci (Onion thrips); assay: Thrips tabaci feeding/contact activity on sprayed sunflower leaf discs; details: foliar, 144 h, application rate of 200 ppm, thrips population of mixed ages, assessed 6 days after infestation, read-out: control (mortality)
Protocol: Thrips tabaci (Onion thrips): Feeding/Contact Activity
Sunflower leaf discs were placed on agar in 24-well microtiter plates and sprayed with aqueous test solutions prepared from 10′000 ppm DMSO stock solutions. After drying the leaf discs were infested with a thrips population of mixed ages. The samples were assessed for mortality 6 days after infestation.

[6] = system: Myzus persicae (Green Peach Aphid); assay: Myzus persicae feeding/contact activity on sprayed sunflower leaf discs; details: foliar, 144 h, application rate of 200 ppm, aphid population of mixed ages, assessed 6 days after infestation, read-out: control (mortality)
Protocol: Myzus persicae (Green Peach Aphid): Feeding/Contact Activity
Sunflower leaf discs were placed onto agar in a 24-well microtiter plate and sprayed with aqueous test solutions prepared from 10′000 ppm DMSO stock solutions. After drying, the leaf discs were infested with an aphid population of mixed ages. The samples were assessed for mortality 6 days after infestation.

[7] = system: Spodoptera littoralis (Egyptian Cotton Leaf Worm); assay: Spodoptera littoralis feeding/contact activity on sprayed cotton leaf discs; details: foliar, 72 h, application rate of 200 ppm, L1 larvae, assessed 3 days after infestation, read-out: control (mortality)
Protocol: Spodoptera littoralis (Egyptian Cotton Leaf Worm): Feeding/Contact Activity
Cotton leaf discs were placed onto agar in 24-well microtiter plates and sprayed with aqueous test solutions prepared from 10′000 ppm DMSO stock solutions. After drying the leaf discs were infested with five L1 larvae. The samples were assessed for mortality 3 days after infestation.

Measured: mortality at 200 ppm

Cn1cc(C(F)(F)C(F)(F)F)c(C(F)(F)F)c1-n1cc(-c2cc(C(=O)NC3CC3)c(C#N)s2)cn1 [Compound 1, 2-cyano-N-cyclopropyl-5-[1-[1-methyl-4-(1,1,2,2,2-pentafluoroethyl)-3-(trifluoromethyl)pyrrol-2-yl]pyrazol-4-yl]thiophene-3-carboxamide]
≥ 80%: all assays above

Cn1cc(C(F)(F)F)c(C(F)(F)C(F)(F)F)c1-n1cc(-c2cc(C(=O)NC3CC3)c(C#N)s2)cn1 [Compound 2, 2-cyano-N-cyclopropyl-5-[1-[1-methyl-3-(1,1,2,2,2-pentafluoroethyl)-4-(trifluoromethyl)pyrrol-2-yl]pyrazol-4-yl]thiophene-3-carboxamide]
not listed: [5]
≥ 80%: all other assays above

Cn1cc(C(F)(F)C(F)(F)F)c(C(F)(F)F)c1-c1cc(-c2cc(C(=O)NC3CC3)c(C#N)s2)on1 [Compound 3, 2-cyano-N-cyclopropyl-5-[3-[1-methyl-4-(1,1,2,2,2-pentafluoroethyl)-3-(trifluoromethyl)pyrrol-2-yl]isoxazol-5-yl]thiophene-3-carboxamide]
not listed: [6]
≥ 80%: all other assays above

Cn1cc(C(F)(F)F)c(C(F)(F)C(F)(F)F)c1-c1cc(-c2cc(C(=O)NC3CC3)c(C#N)s2)on1 [Compound 4, 2-cyano-N-cyclopropyl-5-[3-[1-methyl-3-(1,1,2,2,2-pentafluoroethyl)-4-(trifluoromethyl)pyrrol-2-yl]isoxazol-5-yl]thiophene-3-carboxamide]
not listed: [4] | [6]
≥ 80%: all other assays above

Cn1c(-n2cc(-c3ccc(Cl)c(C(=O)NC4(C#N)CC4)c3)cn2)cc(C(F)(C(F)(F)F)C(F)(F)F)c1Cl [Compound 5, 2-chloro-5-[1-[5-chloro-1-methyl-4-[1,2,2,2-tetrafluoro-1-(trifluoromethyl)ethyl]pyrrol-2-yl]pyrazol-4-yl]-N-(1-cyanocyclopropyl)benzamide]
≥ 80%: [1] | [2] | [3] | [7]

Cn1c(Cl)c(C(F)(C(F)(F)F)C(F)(F)F)c(Br)c1-n1cc(-c2ccc(Cl)c(C(=O)NC3(C#N)CC3)c2)cn1 [Compound 6, 5-[1-[3-bromo-5-chloro-1-methyl-4-[1,2,2,2-tetrafluoro-1-(trifluoromethyl)ethyl]pyrrol-2-yl]pyrazol-4-yl]-2-chloro-N-(1-cyanocyclopropyl)benzamide]
≥ 80%: [1] | [2] | [3] | [7]

Cn1c(Br)cc(C(F)(C(F)(F)F)C(F)(F)F)c1-c1cc(-c2ccc(Cl)c(C(=O)NC3(C#N)CC3)c2)on1 [Compound 7, 5-[3-[5-bromo-1-methyl-3-[1,2,2,2-tetrafluoro-1-(trifluoromethyl)ethyl]pyrrol-2-yl]isoxazol-5-yl]-2-chloro-N-(1-cyanocyclopropyl)benzamide]
≥ 80%: [1] | [3] | [6] | [7]
